Measured values as given in article PMC11876601 (Molecular Systems Biology, 2025).
Like-named read-outs stand apart in the source and are kept apart here.

Test system: p-sites in DNA-damaged AsPC-1 cells
Test: decryptM dose-resolved phosphoproteomics of ATRi in GEM-pre-treated cells
Type: cell-based, human
Settings: for EC50: Homo sapiens
Method: Cell culture medium was replaced 24 h after seeding. […] For time point 0, AsPC-1 cells were treated with a vehicle and lysed immediately. The final DMSO concentration in all experiments was 0.2%.
Briefly, cells were washed twice with PBS and lysed in SDS lysis buffer (2% SDS in 40 mM Tris-HCl, pH 7.6), followed by sonication for 10 min (30 s on/30 s off) using a Bioruptor (Diagenode). For DNA hydrolysis, samples were boiled at 95 °C for 10 min and incubated with 2% trifluoroacetic acid (TFA) for 1 min, before the reaction was quenched using 4% N-methylmorpholine. Lysate was cleared by centrifugation at 11,000 × g for 5 min and protein concentration was determined using the Pierce BCA Protein Assay Kit (Thermo Scientific).
Using 70% ethanol, samples were then precipitated on beads, followed by washing thrice with 80% ethanol and once with 100% acetonitrile. Subsequently, proteins were reduced and alkylated using 10 mM TCEP, 50 mM chloroacetamide, and 2 mM CaCl2 in 100 mM EPPS/NaOH, pH 8.5 for 1 h at 37 °C, followed by tryptic digestion at 37 °C for 16 h. Peptides were acidified with 1% TFA and desalted on Chromabond HLB plates (30 µm particle size, 10 mg capacity, Machery-Nagel), using 0.1% TFA for equilibration and sample loading, and 0.1% TFA in 70% acetonitrile for peptide elution. Recovered peptides were freeze-dried by vacuum-centrifugation and stored at −20 °C.
Depending on the experiment, samples were either labeled with TMT-11plex (decryptM), TMT-10plex (non-decryptM, quadruplicates), or TMTpro reagent (time-series; all Thermo Scientific). Therefore, dried peptides were reconstituted in 15 µl 100 mM EPPS, pH 8.5 and each treatment condition was labeled with one channel of the respective TMT reagent (5 µl of 25 µg/µl reagent, Appendix Tables S4–S6). The reaction was incubated for 1 h at 23 °C and subsequently quenched with 0.4% hydroxylamine. Then, samples were pooled, acidified with 1% formic acid, and freeze-dried by vacuum-centrifugation. Labeled peptide pools were desalted on C18 Sep-Pak cartridges (37–55 µm particle size, 50 mg capacity, Waters), using 0.1% formic acid as equilibration solvent, and 0.1% formic acid in 60% acetonitrile was used as elution solvent. Eluted peptides were freeze-dried and stored at −20 °C until further use.
Basic reversed-phase (bRP) fractionation of peptides was performed on a Vanquish HPLC (Thermo Scientific). In short, dried peptides were reconstituted in 200 µl 25 mM ammonium bicarbonate, pH 8.0 and directly injected onto a Waters BEH130 XBridge C18 column (3.5 µm, 4.6 × 250 mm). […] Using an automated fraction collector, 96 fractions were collected between min 7 and 55 after injection. Fractions were acidified with 1% formic acid and pooled to 48 fractions, before they were freeze-dried and stored at −20 °C.
Immobilized metal ion affinity chromatography (IMAC) enrichment of phosphorylated peptides was performed on the Bravo automated liquid handling platform using AssayMAP Fe(III)-NTA cartridges (Agilent). In brief, the 48 dried peptide fractions were reconstituted in 0.1% TFA in 80% acetonitrile and further pooled to 12 fractions (200 µl final volume per well). The phosphopeptide enrichment protocol embedded in the Agilent AssayMAP Bravo Protein Sample Prep Workbench v2.0 software was run. Thereby, the cartridges were first primed with 150 μl 0.1% TFA in acetonitrile at 300 μl/min, and equilibrated with 150 μl 0.1% TFA in 80% acetonitrile at 10 μl/min. Then, pooled fractions were loaded at 5 µl/min and further washed three times with 150 μl 0.1% TFA in 80% acetonitrile at 50 μl/min. Enriched peptides were eluted with 60 μl 1% ammonium hydroxide at 5 μl/min.

CNCc1ccc(-c2cc(-c3nc(-c4ccc(S(=O)(=O)C(C)C)cc4)cnc3N)on2)cc1 [Berzosertib]
Log2 PTM response (GEM+ATRi vs. GEM) (AASDHPPT-pS258): -2
Log2 PTM response (GEM+ATRi vs. GEM) (BRCA1-pS1239): -1.2
Log2 PTM response (GEM+ATRi vs. GEM) (BRD8-pS621): -2.5
Log2 PTM response (GEM+ATRi vs. GEM) (CDKN2AIP-pS198): -2
Log2 PTM response (GEM+ATRi vs. GEM) (CHEK1-pS317): -2.8
Log2 PTM response (GEM+ATRi vs. GEM) (CHEK1-pS468): -2.9
Log2 PTM response (GEM+ATRi vs. GEM) (DHX9-pS321): -2.3
Log2 PTM response (GEM+ATRi vs. GEM) (EXO1-pS714): -2.7
Log2 PTM response (GEM+ATRi vs. GEM) (FANCD2-pS319): -2.6
Log2 PTM response (GEM+ATRi vs. GEM) (HDGF-pS103): -2.4
Log2 PTM response (GEM+ATRi vs. GEM) (HMGA1-pS9): -3
Log2 PTM response (GEM+ATRi vs. GEM) (HMGA1-pS36;S44): -1.4
Log2 PTM response (GEM+ATRi vs. GEM) (HMGA1-pS44): -2.9
Log2 PTM response (GEM+ATRi vs. GEM) (HSPA4-pS552): -2.1
Log2 PTM response (GEM+ATRi vs. GEM) (HTATSF1-pS481): -2
EC50 (ASPC1, read-out: EC50 of the majority of pSQ/pTQ sites): ~100 nM
EC50 (ASPC1, read-out: pEC50 of the majority of pSQ/pTQ sites (converted)): ~100 nM
EC50 (ASPC1, p-site dose-response in GEM-pre-treated cells, read-out: EC50, PPM1G S201): 61.6 nM
EC50 (ASPC1, p-site dose-response in GEM-pre-treated cells, read-out: EC50, RALY S176): 124 nM
EC50 (ASPC1, p-site dose-response in GEM-pre-treated cells, read-out: pEC50, PPM1G S201 (converted)): 61.7 nM
EC50 (ASPC1, p-site dose-response in GEM-pre-treated cells, read-out: pEC50, RALY S176 (converted)): 126 nM
EC50 (ASPC1, read-out: median EC50 across all drug-regulated pSQ/pTQ-sites): 188 nM
Log2 PTM response (GEM+ATRi vs. GEM) (LRRC42-pS385): -3.3
Log2 PTM response (GEM+ATRi vs. GEM) (NBN-pS397): -1.8
Log2 PTM response (GEM+ATRi vs. GEM) (NBN-pS615): -0.9
Log2 PTM response (GEM+ATRi vs. GEM) (NSUN5-pS432): -3.5
Log2 PTM response (GEM+ATRi vs. GEM) (PELP1-pS1033): -1.4
Log2 PTM response (GEM+ATRi vs. GEM) (PHF14-pS294): -1.9
Log2 PTM response (GEM+ATRi vs. GEM) (PNISR-pS706): -2.2
Log2 PTM response (GEM+ATRi vs. GEM) (PPM1G-pS201): -3.5
Log2 PTM response (GEM+ATRi vs. GEM) (PPP6R3-pS825): -1.4
Log2 PTM response (GEM+ATRi vs. GEM) (PSMD4-pS266): -1.6
Log2 PTM response (GEM+ATRi vs. GEM) (RAD18-pS368): -1
Log2 PTM response (GEM+ATRi vs. GEM) (RIF1-pS1873): -2.2
Log2 PTM response (GEM+ATRi vs. GEM) (SNRPA-pS115): -1.2
Log2 PTM response (GEM+ATRi vs. GEM) (TCEA1-pS100;S97): -1
Log2 PTM response (GEM+ATRi vs. GEM) (TCEB3-pS251): -2.1
Log2 PTM response (GEM+ATRi vs. GEM) (TOPBP1-pS1504): -1.9
Log2 PTM response (GEM+ATRi vs. GEM) (TSEN34-pS136): -1.2
Log2 PTM response (GEM+ATRi vs. GEM) (UHRF1-pS393): -2.3
Log2 PTM response (GEM+ATRi vs. GEM) (UIMC1-pS171): -1.5
Log2 PTM response (GEM+ATRi vs. GEM) (ZC3H14-pS135): -1.5
ATRi Regulation (Curve), PPM1G S201 (classified by CurveCurator): down
ATRi Regulation (Curve), RALY S176 (classified by CurveCurator): down
PTM response (norm. to 1 µM GEM) (source data 4B (p-site not named), 1 µM GEM + ATRi 1 nM): 1.08
PTM response (norm. to 1 µM GEM) (source data 4B (p-site not named), 1 µM GEM + ATRi 3 nM): 1.06
PTM response (norm. to 1 µM GEM) (source data 4B (p-site not named), 1 µM GEM + ATRi 10 nM): 0.94
PTM response (norm. to 1 µM GEM) (source data 4B (p-site not named), 1 µM GEM + ATRi 30 nM): 1.20
PTM response (norm. to 1 µM GEM) (source data 4B (p-site not named), 1 µM GEM + ATRi 100 nM): 0.78
PTM response (norm. to 1 µM GEM) (source data 4B (p-site not named), 1 µM GEM + ATRi 300 nM): 0.40
PTM response (norm. to 1 µM GEM) (source data 4B (p-site not named), 1 µM GEM + ATRi 1000 nM): 0.20
PTM response (norm. to 1 µM GEM) (source data 4B (p-site not named), 1 µM GEM + ATRi 3000 nM): 0.14
PTM response (norm. to 1 µM GEM) (source data 4B (p-site not named), 1 µM GEM + ATRi 10000 nM): 0.15
PTM response (norm. to 1 µM GEM) (source data 5B (p-site not named), 1 µM GEM + ATRi 1 nM): 0.81
PTM response (norm. to 1 µM GEM) (source data 5B (p-site not named), 1 µM GEM + ATRi 3 nM): 0.96
PTM response (norm. to 1 µM GEM) (source data 5B (p-site not named), 1 µM GEM + ATRi 10 nM): 0.69
PTM response (norm. to 1 µM GEM) (source data 5B (p-site not named), 1 µM GEM + ATRi 30 nM): 0.83
PTM response (norm. to 1 µM GEM) (source data 5B (p-site not named), 1 µM GEM + ATRi 100 nM): 0.51
PTM response (norm. to 1 µM GEM) (source data 5B (p-site not named), 1 µM GEM + ATRi 300 nM): 0.19
PTM response (norm. to 1 µM GEM) (source data 5B (p-site not named), 1 µM GEM + ATRi 1000 nM): 0.12
PTM response (norm. to 1 µM GEM) (source data 5B (p-site not named), 1 µM GEM + ATRi 3000 nM): 0.13
PTM response (norm. to 1 µM GEM) (source data 5B (p-site not named), 1 µM GEM + ATRi 10000 nM): 0.12
